Assay results reported in patent US7371536B2, “Methods for transporting vitamin C” (priority 1999, dated 2008).

What was measured:
Assay type in all cases: cell-based
human SVCT1 [1] = biological target: T1, human SVCT1 (Homo sapiens, UniProt Q9UHI7); assay: L-[14C]ascorbic acid radiotracer uptake in Xenopus oocytes expressing human SVCT1; conditions: data not shown
T1 construct: expressed in transfected cells; host or cells: Xenopus laevis oocytes injected with cRNA (vector pTLN2)
Description: Functional characterization in Xenopus oocytes—SVCT1 and SVCT2 cDNAs were subcloned into the pTLN2 vector (to improve functional expression in oocytes) and used for cRNA synthesis in vitro using the MEGAscript kit and T7 RNA polymerase (from Ambion). Oocytes were isolated from Xenopus laevis, treated with collagenase A and maintained at 18° C. in modified Barths' medium. Oocytes were injected with 15 ng SVCT1 or SVCT2 cRNA or water only. The radiotracer uptake and voltage-clamp experiments described below were conducted 2-5 days post-injection in standard medium of composition 100 mM NaCl, 2 mM KCl, 1 mM CaCl2, 1 mM MgCl2, and 10 mM HEPES (buffered to pH 7.5 with Tris base). For low-Na^+ or Na^+-free media, NaCl was replaced with choline chloride. For pH-dependence experiments, Na^+ media were buffered to between pH 5.5 and pH 8.0 using 0-5 mM MES, 0-5 mM HEPES and 0-5 mM Tris base. L-Ascorbic acid-containing solutions were always freshly prepared and used immediately. […] Oocytes were solubilized with 10% SDS and carbon-14 content measured by liquid scintillation counting. A two-microelectrode voltage-clamp was used to measure currents associated with SVCT1 expressed in oocytes. Oocytes were superfused at 22° C. in standard Na^+ medium and clamped at −50 mV. Current was continuously monitored by sampling at 1 Hz. Test solutions were always washed out with substrate-free, Na^+-free medium at pH 7.5 for several minutes. Once again, saturation kinetics data were fit to a modified Hill equation in which I and Imax were replaced by uptake V and maximal velocity Vmax for analysis of radiotracer uptake data.

human SVCT1 [2] = biological target: T1, human SVCT1; assay: Two-microelectrode voltage-clamp of Xenopus oocytes expressing human SVCT1; conditions: for transport / substrate selectivity (in words): 500 μM, −50 mV
Description: Functional characterization in Xenopus oocytes—SVCT1 and SVCT2 cDNAs were subcloned into the pTLN2 vector (to improve functional expression in oocytes) and used for cRNA synthesis in vitro using the MEGAscript kit and T7 RNA polymerase (from Ambion). Oocytes were isolated from Xenopus laevis, treated with collagenase A and maintained at 18° C. in modified Barths' medium. Oocytes were injected with 15 ng SVCT1 or SVCT2 cRNA or water only. The radiotracer uptake and voltage-clamp experiments described below were conducted 2-5 days post-injection in standard medium of composition 100 mM NaCl, 2 mM KCl, 1 mM CaCl2, 1 mM MgCl2, and 10 mM HEPES (buffered to pH 7.5 with Tris base). For low-Na^+ or Na^+-free media, NaCl was replaced with choline chloride. For pH-dependence experiments, Na^+ media were buffered to between pH 5.5 and pH 8.0 using 0-5 mM MES, 0-5 mM HEPES and 0-5 mM Tris base. L-Ascorbic acid-containing solutions were always freshly prepared and used immediately. Radiotracer uptake was determined by incubating 8-12 oocytes for 30 min (within the time-course of linear uptake) in standard Na^+, low-Na^+ or Na^+-free media with 10-500 μM L-[1-^14C]ascorbic acid (final specific activity ≈0.3 GBq/mmol). Oocytes were solubilized with 10% SDS and carbon-14 content measured by liquid scintillation counting. A two-microelectrode voltage-clamp was used to measure currents associated with SVCT1 expressed in oocytes. Oocytes were superfused at 22° C. in standard Na^+ medium and clamped at −50 mV. Current was continuously monitored by sampling at 1 Hz. Test solutions were always washed out with substrate-free, Na^+-free medium at pH 7.5 for several minutes. Once again, saturation kinetics data were fit to a modified Hill equation in which I and Imax were replaced by uptake V and maximal velocity Vmax for analysis of radiotracer uptake data.

rat SVCT1 [3] = biological target: T2, rat SVCT1 (Rattus norvegicus, UniProt Q9WTW7); assay: Two-microelectrode voltage-clamp of Xenopus oocytes expressing rat SVCT1; conditions: for evoked current / substrate selectivity (in words): oocytes expressing SVCT1
T2 construct: expressed in transfected cells; host or cells: Xenopus laevis oocytes injected with cRNA
Description: Rat SVCT1 and SVCT2 clones were obtained by isolating SVCT1 cDNA from rat kidney by expression cloning as described in Hediger et al., Methods Enzymol. 296:17-52 (1998). The SVCT2 cDNA was subsequently isolated by PCR-based homology screening of a rat brain cDNA library. […] Radiotracer and voltage-clamp experiments were performed (at 22° C.) in Xenopus oocytes two to seven days after injection with ˜25 ng of SVCT1 or SVCT2 cRNA synthesized in vitro. Radiotracer uptake was determined by incubating 6-10 oocytes for 30 or 60 min in standard 100 mM Na^+ or Na^+-free media with 10-600 μM L-[^14C]ascorbic acid.
(§1) Functional characterization of SVCT1 and SVCT2 in Xenopus oocytes—Oocytes were isolated from Xenopus laevis (under 2-aminoethylbenzoate anaesthesia), treated with collagenase A and stored at 18° C. in modified Barths' medium. Oocytes were injected with ≈25 ng of SVCT1 or SVCT2 cRNA synthesized in vitro, or water only (control), and incubated 2-7 days before radiotracer or voltage-clamp experiments were performed. Standard Na^+ uptake medium comprised 100 mM NaCl, 2 mM KCl, 1 mM CaCl2, 1 mM MgCl2, 10 mM HEPES (pH 7.5 with Tris base). For Na^+-free or low-Na^+ media, NaCl was replaced by equimolar choline chloride; likewise, Cl^− was replaced by gluconate for Cl^−-free medium. For pH-sensitivity experiments, Na^+ media were buffered at pH 5.5-8.0 using 0-5 mM MES, 0-5 mM HEPES and 0-5 mM Tris base. L-Ascorbic acid-containing solutions were freshly-prepared (without dithiothreitol) and used immediately.
(§2) Radiotracer uptake was determined by incubating 6-10 oocytes for 30 or 60 min in standard Na^+ or Na^+-free media (at 22° C.) with 10-600 μM L-[1-^14C]ascorbic acid (final specific activity 0.3 GBq/mmol). Oocytes were solubilized with 10% SDS and [^14C]-content was measured by liquid scintillation counting. A two-microelectrode voltage-clamp was used to measure currents in control oocytes and oocytes injected with rat SVCT1 or rat SVCT2 cRNA. Microelectrodes (resistance 0.5-5 MΩ) were filled with 3 M KCl. Oocytes were superfused at 22° C. in standard Na^+ medium and clamped at a holding potential (Vh) of −50 mV. For continuous current monitoring at Vh=−50 mV, the current was low-pass filtered at 20 Hz (sampling at 1 Hz). Additionally, step-changes in membrane potential (Vm) were applied (from +50 mV to −150 mV in 20-mV increments), each for a duration of 100 ms, before and after the addition of substrate; current was low-pass filtered at 500 Hz and digitized at 5 kHz. Test solutions were always washed out with substrate-free medium (100 mM choline chloride) at pH 7.5 for several minutes. Steady-state data (obtained by averaging the points over the final 16.7 ms at each Vm step when step-changes were applied) were fitted to equation (1) below, for which I is the evoked current (i.e., the difference in steady-state current measured in the presence and absence of substrate), Imax the derived current maximum, S the concentration of substrate S (Na^+ or L-ascorbic acid),
(§3) [formula] the substrate concentration at which current was half-maximal, and nH the Hill coefficient for S. (For radiotracer experiments, I was replaced with velocity V and Imax replaced with the derived maximal velocity, Vmax.)

rat SVCT2 = biological target: T3, rat SVCT2 (Rattus norvegicus, UniProt Q9WTW8); assay: L-[14C]ascorbic acid radiotracer uptake in Xenopus oocytes expressing rat SVCT2
T3 construct: expressed in transfected cells; host or cells: Xenopus laevis oocytes injected with cRNA (vector pTLN2)
Description: (§4) Rat SVCT1 and SVCT2 clones were obtained by isolating SVCT1 cDNA from rat kidney by expression cloning as described in Hediger et al., Methods Enzymol. 296:17-52 (1998). The SVCT2 cDNA was subsequently isolated by PCR-based homology screening of a rat brain cDNA library. A 2.5-kb rabbit cDNA with 96% identity to residues 96-505 of the rat SVCT2 was obtained by RT-PCR. Radiotracer and voltage-clamp experiments were performed (at 22° C.) in Xenopus oocytes two to seven days after injection with ˜25 ng of SVCT1 or SVCT2 cRNA synthesized in vitro. Radiotracer uptake was determined by incubating 6-10 oocytes for 30 or 60 min in standard 100 mM Na^+ or Na^+-free media with 10-600 μM L-[^14C]ascorbic acid.
as §1
as §2, with “Additionally, step-changes in membrane potential (Vm) were applied (from +50 mV to −150 mV in 20-mV increments), each for a duration of 100 ms, before and after the addition of substrate; current was low-pass filtered at 500 Hz and digitized at 5 kHz. Test solutions were always washed out with substrate-free medium (100 mM choline chloride) at pH 7.5 for several minutes.” left out, “acid), […]” for “acid),”

rat SVCT1 [4] = biological target: T2, rat SVCT1; assay: L-[14C]ascorbic acid radiotracer uptake in Xenopus oocytes expressing rat SVCT1
Description: as §4, §1, §2, §3

T2 sequence (Q9WTW7 whole entry): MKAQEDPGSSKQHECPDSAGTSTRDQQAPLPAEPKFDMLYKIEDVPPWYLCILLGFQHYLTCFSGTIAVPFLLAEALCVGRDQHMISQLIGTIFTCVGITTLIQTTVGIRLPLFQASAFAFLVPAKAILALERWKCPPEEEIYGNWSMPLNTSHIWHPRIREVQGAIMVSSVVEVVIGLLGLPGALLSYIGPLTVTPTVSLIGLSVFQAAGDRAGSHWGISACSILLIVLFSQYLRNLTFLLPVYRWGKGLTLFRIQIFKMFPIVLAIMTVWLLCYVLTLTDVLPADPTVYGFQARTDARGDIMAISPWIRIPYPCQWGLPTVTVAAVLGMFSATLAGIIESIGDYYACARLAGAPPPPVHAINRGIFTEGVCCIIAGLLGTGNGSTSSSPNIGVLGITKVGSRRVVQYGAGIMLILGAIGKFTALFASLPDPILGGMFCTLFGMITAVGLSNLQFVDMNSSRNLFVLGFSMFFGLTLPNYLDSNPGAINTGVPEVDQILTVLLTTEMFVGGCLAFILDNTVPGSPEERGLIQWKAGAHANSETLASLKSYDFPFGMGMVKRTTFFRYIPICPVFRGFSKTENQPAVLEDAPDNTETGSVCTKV
T3 sequence (Q9WTW8 whole entry): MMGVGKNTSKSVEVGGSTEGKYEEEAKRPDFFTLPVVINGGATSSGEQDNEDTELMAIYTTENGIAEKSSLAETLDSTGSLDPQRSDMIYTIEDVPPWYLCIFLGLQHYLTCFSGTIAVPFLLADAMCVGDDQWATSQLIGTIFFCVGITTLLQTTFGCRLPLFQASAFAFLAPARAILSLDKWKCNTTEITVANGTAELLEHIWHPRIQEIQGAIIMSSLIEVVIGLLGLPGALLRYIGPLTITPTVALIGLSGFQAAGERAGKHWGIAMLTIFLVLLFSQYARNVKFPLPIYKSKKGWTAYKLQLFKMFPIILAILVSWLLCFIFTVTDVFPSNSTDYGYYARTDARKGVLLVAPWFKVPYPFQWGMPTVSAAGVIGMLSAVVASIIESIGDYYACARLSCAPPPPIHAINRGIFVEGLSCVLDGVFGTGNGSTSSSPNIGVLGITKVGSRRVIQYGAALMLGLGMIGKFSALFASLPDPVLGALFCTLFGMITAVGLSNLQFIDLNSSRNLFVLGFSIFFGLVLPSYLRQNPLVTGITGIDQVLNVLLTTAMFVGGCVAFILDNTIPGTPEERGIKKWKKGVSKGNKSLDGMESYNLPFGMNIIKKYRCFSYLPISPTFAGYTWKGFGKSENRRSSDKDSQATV
T1 sequence (Q9UHI7 whole entry): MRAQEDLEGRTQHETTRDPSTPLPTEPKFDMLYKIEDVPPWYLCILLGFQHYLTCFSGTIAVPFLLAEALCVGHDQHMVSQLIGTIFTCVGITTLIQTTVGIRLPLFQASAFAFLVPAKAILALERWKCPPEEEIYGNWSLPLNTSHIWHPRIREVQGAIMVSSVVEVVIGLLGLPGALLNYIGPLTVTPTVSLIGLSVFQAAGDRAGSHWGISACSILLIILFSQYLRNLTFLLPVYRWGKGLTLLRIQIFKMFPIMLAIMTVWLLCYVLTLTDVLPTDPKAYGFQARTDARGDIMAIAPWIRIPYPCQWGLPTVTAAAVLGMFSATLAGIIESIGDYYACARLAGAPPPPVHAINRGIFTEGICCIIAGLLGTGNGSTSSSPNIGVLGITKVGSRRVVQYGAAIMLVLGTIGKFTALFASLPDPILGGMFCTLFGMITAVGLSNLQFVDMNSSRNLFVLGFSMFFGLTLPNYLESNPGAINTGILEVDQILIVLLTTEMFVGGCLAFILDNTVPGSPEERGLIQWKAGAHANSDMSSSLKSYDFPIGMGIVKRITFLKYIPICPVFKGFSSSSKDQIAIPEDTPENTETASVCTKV

## O=C[C@H](O)[C@@H](O)[C@H](O)[C@H](O)CO [D-glucose]
Human SVCT1 [1]
  inhibition of L-[14C]ascorbic acid uptake (in words): not significantly inhibited
Human SVCT1 [2]
  transport / substrate selectivity (in words): excluded
Rat SVCT1 [3]
  evoked current / substrate selectivity (in words): excluded

## CC(=O)Oc1ccccc1C(=O)O [aspirin, acetyl-salicylic acid]
Human SVCT1 [1]
  inhibition of L-[14C]ascorbic acid uptake (in words): not significantly inhibited
Rat SVCT1 [3]
  evoked current / substrate selectivity (in words): tiny outward currents
Rat SVCT2
  inhibition of SVCT2-mediated L-[14C]ascorbic acid uptake (in words): modest inhibition
Rat SVCT1 [4]
  inhibition of SVCT1-mediated L-[14C]ascorbic acid uptake (in words): modest inhibition

## O=C1O[C@H]([C@@H](O)CO)C(=O)C1=O [dehydroascorbic acid]
Human SVCT1 [2]
  transport / substrate selectivity (in words): barely transported
Rat SVCT1 [3]; substrate selectivity, FIG. 4F
  evoked current relative to that for L-ascorbic acid: ≈ 5%

## O=C(CCc1ccc(O)cc1)c1c(O)cc(O)cc1O [phloretin]
Human SVCT1 [1]
  inhibition of L-[14C]ascorbic acid uptake: ≈ 80%
Human SVCT1 [2]; FIG. 8A, 100 μM phloretin
  inhibition of the L-ascorbic acid-evoked current (in words): potent inhibitor
Human SVCT1 [2]; absence of L-ascorbic acid or other substrate
  block of the Na^+ leak current (in words): blocked
Rat SVCT1 [3]; FIG. 4H
  block of the inward current evoked by L-ascorbic acid: blocked
Rat SVCT1 [3]
  evoked current / substrate selectivity (in words): sizable outward current
Rat SVCT1 [3]; uniport mode, absence of L-ascorbic acid, read-out: apparent Ki, inhibition of the Na^+ leak current
  Ki: ~100 µM
Rat SVCT2
  inhibition of SVCT2-mediated L-[14C]ascorbic acid uptake (in words): inhibited
Rat SVCT1 [4]
  inhibition of SVCT1-mediated L-[14C]ascorbic acid uptake (in words): inhibited
Rat SVCT1 [4]; Dixon analysis
  mode of inhibition of L-[14C]ascorbic acid uptake: non-competitive inhibitor
Rat SVCT1 [4]; FIG. 4I, read-out: Ki, Dixon analysis of L-[14C]ascorbic acid uptake
  Ki: ~65 µM

## O=C(CCc1ccc(O)cc1)c1c(O)cc(O)cc1O[C@@H]1O[C@H](CO)[C@@H](O)[C@H](O)[C@H]1O [phlorizin]
Rat SVCT1 [3]
  evoked current / substrate selectivity (in words): tiny outward currents
Rat SVCT2
  inhibition of SVCT2-mediated L-[14C]ascorbic acid uptake (in words): modest inhibition
Rat SVCT1 [4]
  inhibition of SVCT1-mediated L-[14C]ascorbic acid uptake (in words): modest inhibition

## O=c1[nH]c(=O)c2[nH]cnc2[nH]1 [xanthine]
Rat SVCT1 [3]
  evoked current / substrate selectivity (in words): tiny outward currents
Rat SVCT2
  inhibition of SVCT2-mediated L-[14C]ascorbic acid uptake (in words): modest inhibition
Rat SVCT1 [4]
  inhibition of SVCT1-mediated L-[14C]ascorbic acid uptake (in words): modest inhibition
